The target of experiment [1] is T1, RARβ (Homo sapiens, UniProt P10826).
T1 sequence (P10826 183-417 limits assumed): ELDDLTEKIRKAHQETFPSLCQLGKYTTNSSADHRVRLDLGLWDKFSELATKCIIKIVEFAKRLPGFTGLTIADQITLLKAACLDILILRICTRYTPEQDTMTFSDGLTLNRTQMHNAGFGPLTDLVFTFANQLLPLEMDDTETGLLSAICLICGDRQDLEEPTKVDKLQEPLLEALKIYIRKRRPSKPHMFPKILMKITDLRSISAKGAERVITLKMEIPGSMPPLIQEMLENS
Briefly: chimeric receptor transactivation assay, RARβ. The format is cell-based. The following applies: EC50 line of EC50/(EFFICACY)/Kd, read-out: RAR β EC50. The text has this: (§1) Assays described below measure the ability of a compound to bind to, and/or activate various retinoid receptor subtypes. When in these assays a compound binds to a given receptor subtype and activates the transcription of a reporter gene through that subtype, then the compound is considered an agonist of that receptor subtype. […] In the below described assays the ability of the compounds to bind to RARα, RARβ, RARγ, RXRα, RXRβ and RXRγ receptors, and the ability or inability of the compounds to activate transcription of a reporter gene through these receptor subtypes can be tested.
(§2) The results obtained in this assay are expressed in EC50 numbers, as they are also in the chimeric receptor transactivation assay. The results of ligand binding assay are expressed in Kd numbers.

Experiment [2] concerns the target T2, RARα (Homo sapiens, UniProt P10276).
T2 sequence (P10276 1-462): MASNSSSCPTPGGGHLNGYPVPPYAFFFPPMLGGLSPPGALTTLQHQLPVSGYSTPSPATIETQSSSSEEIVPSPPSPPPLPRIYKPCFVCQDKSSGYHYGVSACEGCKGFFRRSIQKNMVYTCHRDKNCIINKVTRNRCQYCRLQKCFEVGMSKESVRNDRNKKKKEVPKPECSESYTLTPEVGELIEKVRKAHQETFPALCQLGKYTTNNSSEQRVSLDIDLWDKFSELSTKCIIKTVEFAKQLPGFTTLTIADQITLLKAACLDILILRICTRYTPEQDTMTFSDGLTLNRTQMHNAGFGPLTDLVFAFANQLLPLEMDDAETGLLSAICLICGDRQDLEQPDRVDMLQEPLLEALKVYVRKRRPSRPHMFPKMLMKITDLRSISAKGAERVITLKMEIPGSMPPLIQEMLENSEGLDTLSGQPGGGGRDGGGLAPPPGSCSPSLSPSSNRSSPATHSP
Briefly: ligand binding assay, RARα. The following applies: Kd line of EC50/(EFFICACY)/Kd, K = thousand, read-out: RAR α Kd.
Excerpt: as §1, §2

Experiment [3] has as its target T3, RARβ (Homo sapiens, UniProt P10826).
T3 sequence (P10826 1-455): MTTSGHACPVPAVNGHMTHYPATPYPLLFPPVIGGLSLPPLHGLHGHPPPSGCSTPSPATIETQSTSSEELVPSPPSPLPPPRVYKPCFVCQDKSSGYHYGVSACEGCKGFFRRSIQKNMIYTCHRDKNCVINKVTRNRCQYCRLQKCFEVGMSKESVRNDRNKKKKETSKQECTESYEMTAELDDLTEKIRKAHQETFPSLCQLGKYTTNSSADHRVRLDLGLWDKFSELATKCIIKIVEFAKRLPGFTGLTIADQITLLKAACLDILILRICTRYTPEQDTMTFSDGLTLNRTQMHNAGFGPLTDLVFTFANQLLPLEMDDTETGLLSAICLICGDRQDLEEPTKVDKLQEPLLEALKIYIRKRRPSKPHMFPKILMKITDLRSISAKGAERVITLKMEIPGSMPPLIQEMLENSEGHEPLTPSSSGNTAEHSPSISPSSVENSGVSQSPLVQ
Nature of the experiment: ligand binding assay, RARβ. The following applies: Kd line of EC50/(EFFICACY)/Kd, K = thousand, read-out: RAR β Kd.
Excerpt: as §1, §2

For experiment [4], the target named is T4, RARα (Homo sapiens, UniProt P10276).
T4 sequence (P10276 183-417 limits assumed): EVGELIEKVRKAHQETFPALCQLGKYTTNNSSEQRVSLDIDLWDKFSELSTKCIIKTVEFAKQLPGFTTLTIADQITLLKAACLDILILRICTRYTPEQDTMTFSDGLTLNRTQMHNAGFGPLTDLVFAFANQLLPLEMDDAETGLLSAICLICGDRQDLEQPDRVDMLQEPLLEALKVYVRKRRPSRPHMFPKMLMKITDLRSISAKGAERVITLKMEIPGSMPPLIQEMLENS
Nature of the experiment: chimeric receptor transactivation assay, RARα. The format is cell-based. The conditions noted are these: EC50 line of EC50/(EFFICACY)/Kd, read-out: RAR α EC50.
Excerpt: as §1, §2

For experiment [5], the target named is T5, RARγ (Homo sapiens, UniProt P13631).
T5 sequence (P13631 1-454): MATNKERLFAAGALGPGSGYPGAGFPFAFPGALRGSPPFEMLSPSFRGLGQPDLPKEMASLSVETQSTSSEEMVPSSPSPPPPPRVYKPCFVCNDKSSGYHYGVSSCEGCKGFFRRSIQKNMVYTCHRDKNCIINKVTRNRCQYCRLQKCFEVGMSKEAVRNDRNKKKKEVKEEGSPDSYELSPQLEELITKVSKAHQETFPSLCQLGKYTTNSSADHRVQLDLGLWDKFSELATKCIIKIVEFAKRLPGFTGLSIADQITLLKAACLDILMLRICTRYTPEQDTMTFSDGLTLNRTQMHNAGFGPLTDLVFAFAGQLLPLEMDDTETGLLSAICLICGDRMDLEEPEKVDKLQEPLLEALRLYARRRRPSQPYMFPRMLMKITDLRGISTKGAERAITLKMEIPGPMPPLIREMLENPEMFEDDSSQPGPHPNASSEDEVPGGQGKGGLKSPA
Briefly: ligand binding assay, RARγ. The conditions noted are these: Kd line of EC50/(EFFICACY)/Kd, K = thousand, read-out: RAR γ Kd.
Excerpt: as §1, §2

In experiment [6] the target is T6, RARγ (Homo sapiens, UniProt P13631).
T6 sequence (P13631 185-454 limits assumed): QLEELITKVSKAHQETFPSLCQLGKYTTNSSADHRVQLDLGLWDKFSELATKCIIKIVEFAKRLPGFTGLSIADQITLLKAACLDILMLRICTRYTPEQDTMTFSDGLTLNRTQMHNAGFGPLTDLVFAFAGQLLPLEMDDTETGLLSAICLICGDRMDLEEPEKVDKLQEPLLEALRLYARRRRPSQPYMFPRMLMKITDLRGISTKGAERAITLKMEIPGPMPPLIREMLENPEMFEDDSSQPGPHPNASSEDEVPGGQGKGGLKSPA
Nature of the experiment: chimeric receptor transactivation assay, RARγ. Type of experiment: cell-based. The conditions noted are these: EC50 line of EC50/(EFFICACY)/Kd, read-out: RAR γ EC50.
Excerpt: as §1, §2

With `CC1(C)CCSc2ccc(C#Cc3ccc(CCC(=O)O)cc3)cc21` [Compound 210], the EC50 (commonly the concentration giving half of the maximal effect) on RARβ [1] came to 0.018 µM; at RARα [4] it was 0.089 µM; at RARγ [6] it was 0.015 µM. For the same compound, the values for the Kd on RARα [2], at RARβ [3] and on RARγ [5] were 10 µM, 2.89 µM and 10 µM, respectively.

Values taken from US6855512B2, “Methods for identifying inhibitors of cytochrome P450RAI” (Allergan, Inc., priority 2000, dated 2005).
